Values of other authors as cited in patent US20040176378A1, “Compositions of a cyclooxygenase-2 selective inhibitor and an amphetamine for the treatment of reduced blood flow to the central nervous system” (Pharmacia Corporation, priority 2003, published 2004).

Assays:
[1] = test system: human stroke victims; conditions: coupled with physical therapy, compared to stroke victims receiving only physical therapy
[2] = test system: infarcted rats

For `CC(N)Cc1ccccc1` (centres unmarked) [amphetamine], the motor recovery [1] is given as “accelerated motor recovery” and the alternative circuit activation [2] is given as “promoted alternative circuit activation”.
